Experimental data taken from PMC8512560, “Design, Synthesis, and Antipoliferative Activities of Novel Substituted Imidazole-Thione Linked Benzotriazole Derivatives” (Molecules, 2021).
Values joined by “and” are separate entries in the source; they are usually repeats but may differ in a detail not shown here. Identical values can stand only once. Like-named read-outs stand apart in the source and are kept apart here.

Legend:
[1] = tested on: MCF-7, HL-60 and HCT-116 cancer cell lines; experiment: MTT viability assay, values pooled over the cancer cell lines; assay type: cell-based, human; settings: for Fold more active than methyl-containing derivative BI2 (antiproliferative): relative to BI2, cell line not specified; for IC50: Homo sapiens, MTT
Method: (§1) All the human tumour cell lines MCF-7, HL-60, HCT-116, and HUVEC were cultured in Dulbecco’s Modified Eagle’s Medium (DMEM) with 10% fetal bovine serum, 2 mM L-glutamine and 100 µg/mL penicillin/streptomycin. Cells were maintained at 37 °C in 5% CO2 in a humidified incubator. All cells were sub-cultured three times/week by trypsinization using TrypLE Express (1X).
(§2) The Benzotriazole compounds were evaluated for antiproliferative effect using the MTT viability assay of various cancer cell lines (MCF-7, HCT-116 and HL-60) and the normal human umbilical vein endothelial cell line (HUVEC) to calculate the relative IC50 values for each compound. Cells were seeded in triplicate in 96-well plates at a density of 10 × 10^3 cells/mL in a total volume of 200 µL per well. 0.1% of DMSO was used as a vehicle control. After this time, they were treated with 2 µL test compound which had been pre-prepared as stock solutions in ethanol to furnish the concentration range of study, 10 nM to 100 µM, and re-incubated for a further 72 h. The culture medium was then removed, and the cells washed with 100 µL phosphate buffered saline (PBS) and 50 µL MTT added, to reach a final concentration of 1 mg/mL MTT added. Cells were incubated for 2 h in darkness at 37 °C. At this point solubilisation was begun through the addition of […] DMSO and the cells maintained at room temperature in darkness for 20 min to ensure thorough colour diffusion before reading the absorbance. Plates were incubated for 72 h at 37 °C + 5% CO2. The MTT (5 mg/mL in PBS) was added and incubated for another 4 h, and the optical density was detected with a microplate reader at 570 nm. Results were expressed as percentage viability relative to vehicle control (100%). Dose response curves were plotted and IC50 values (concentration of drug resulting in 50% reduction in cell survival) were obtained using the commercial software package Prism (GraphPad Software, Inc., La Jolla, CA, USA). All the experiments were repeated in at least three independent experiments.

[2] = tested on: HUVEC human umbilical vein endothelial cell line; experiment: MTT viability assay, normal HUVEC cells; assay type: cell-based; settings: 72 h, mean ± SD of three independent experiments
Method: as §1, §2

[3] = tested on: HL-60 human leukemia cancer cell line; experiment: MTT viability assay, HL-60; assay type: cell-based; settings: mean ± SD of three independent experiments, read-out: Antiproliferative Activities IC50, HL-60
Method: as §1, §2

[4] = tested on: MCF-7 human breast cancer cell line; experiment: MTT viability assay, MCF-7; assay type: cell-based; settings: mean ± SD of three independent experiments, read-out: Antiproliferative Activities IC50, MCF-7
Method: as §1, §2

[5] = tested on: bovine brain tubulin; experiment: Tubulin polymerization assay (turbidimetric, kit BK006); assay type: biochemical; settings: read-out: Anti-Tubulin Activity IC50 ± SD (inhibition of tubulin polymerization)
Method: The assembly of purified bovine tubulin was monitored using a kit, BK006, purchased from Cytoskeleton Inc., (Denver, CO, USA). The assay was carried out in accordance with the manufacturer’s instructions using the standard assay conditions. Briefly, purified ([…]) in a buffer consisting of 80 mM PIPES (pH 6.9), 0.5 mM EGTA, 2 mM MgCl2, 1 mM GTP and 10% glycerol was incubated at 37 °C in the presence of either vehicle (2% (v/v) ddH2O), CA-4, benzotriazole compounds. Light was scattered proportionally to the concentration of polymerized microtubules in the assay. Therefore, the tubulin assembly was monitored turbidimetrically at 340 nm in a Spectramax 340 PC spectrophotometer (Molecular Devices, Sunnyvale, CA, USA). The concentration that inhibits tubulin polymerization by 50% (IC50) was determined using area under the curve (AUC). The AUC of the untreated controls were considered as 100% polymerization. The IC50 value for each compound was computed using GraphPad Prism Software.

[6] = tested on: colchicine binding site of tubulin; experiment: Colchicine site competitive binding assay ([3H]colchicine); settings: tubulin and colchicine at 1 and 5 µM
Method: The affinity of Benzotriazole compounds to colchicine binding site was determined using a Colchicine Site Competitive Assay kit CytoDYNAMIX Screen15 (Cytoskeleton, Inc., Denver, CO, USA) using the standard protocol of the manufacturer to determine Ki values (μM). Biotin-labelled tubulin ([…]) and the test compounds (positive control colchicine, negative control vinblastine, G-1, fluorescent G-1, or 2-ME) in a 96-well plate (final volume: 100 μL). After incubating for 2 h at 37 °C with gentle shaking, streptavidin-labelled yttrium SPA beads (80 μg in 20 μL reaction buffer, PerkinElmer, Waltham, MA) were added to each well and incubated for 30 min at 4 °C. The plates were then read on a scintillation counter (Packard Instrument, Topcount Microplate Reader) and the percentage of inhibition was calculated.

[7] = tested on: HCT-116 human colon cancer cell line; experiment: MTT viability assay, HCT-116; assay type: cell-based; settings: mean ± SD of three independent experiments, read-out: Antiproliferative Activities IC50, HCT-116
Method: as §1, §2

[8] = MCF-7, HL-60 and HCT-116, read-out: IC50 values range over the three cancer cell lines
[9] = HL-60 and HCT-116 only, read-out: IC50 values range versus HL-60 and HCT-116 cells

In the case of `CCc1ccc(-n2cc(-n3nnc4ccccc43)[nH]c2=S)cc1` [BI3, 4-(1H-Benzo[d][1,2,3]Triazol-1-yl)-1-(4-Ethylphenyl)-1H-Imidazole-2(3H)-Thione], the “Fold more active than methyl-containing derivative BI2 (antiproliferative)” value [1] is reported as 3.8 fold, the melting point is reported as 150 to 152 °C and the IC50 [2] is reported as > 100 µM. The IC50 ([3]; Homo sapiens, HL-60, 72 h) was 3.91 ± 0.27 µM, the IC50 ([4]; Homo sapiens, MCF7, 72 h) was 10.6 ± 0.31 µM and the IC50 [5] was 0.928 ± 0.04 µM. The “Colchicine Binding % ± SD (inhibition of [3H]colchicine binding), 1 µM Drug” value [6] was 65.38 ± 2%, the “Colchicine Binding % ± SD (inhibition of [3H]colchicine binding), 5 µM Drug” value [6] was 86.85 ± 2% and the IC50 ([7]; Homo sapiens, HCT-116, 72 h) was 2.75 ± 0.18 µM.
In the case of `Cc1ccc(-n2cc(-n3nnc4ccccc43)[nH]c2=S)cc1` [BI2, 4-(1H-Benzo[d][1,2,3]Triazol-1-yl)-1-(4-Methylphenyl)-1H-Imidazole-2(3H)-Thione], the IC50 [1, 8] is reported as > 10 µM, the melting point is reported as 178 to 180 °C and the IC50 [2] is reported as 12.2 ± 0.58 µM. For the same compound, the IC50 ([3]; Homo sapiens, HL-60, 72 h) was 37.1 ± 2.54 µM, the IC50 ([4]; Homo sapiens, MCF7, 72 h) was 12.5 ± 0.36 µM and the IC50 ([7]; Homo sapiens, HCT-116, 72 h) was 14.8 ± 0.95 µM.
Compound `S=c1[nH]c(-n2nnc3ccccc32)cn1-c1ccccc1Cl` [BI7, 4-(1H-Benzo[d][1,2,3]Triazol-1-yl)-1-(2-Chlorophenyl)-1H-Imidazole-2(3H)-Thione] has an IC50 [1, 9] of 1.51 to 7.38 µM, a melting point of 180 to 182 °C and an IC50 [2] of 17.3 ± 0.35 µM. For the same compound, the IC50 ([3]; Homo sapiens, HL-60, 72 h) was 3.42 ± 0.23 µM, the IC50 ([4]; Homo sapiens, MCF7, 72 h) was 15.5 ± 0.44 µM and the IC50 [5] was 0.84 ± 0.02 µM. For the same compound, the “Colchicine Binding % ± SD (inhibition of [3H]colchicine binding), 1 µM Drug” value [6] was 61.18 ± 2%, the “Colchicine Binding % ± SD (inhibition of [3H]colchicine binding), 5 µM Drug” value [6] was 79.95 ± 2% and the IC50 ([7]; Homo sapiens, HCT-116, 72 h) was 7.38 ± 0.48 µM.
Compound `S=c1[nH]c(-n2nnc3ccccc32)cn1-c1ccc(Br)cc1` [BI11, 4-(1H-Benzo[d][1,2,3]Triazol-1-yl)-1-(4-Bromophenyl)-1H-Imidazole-2(3H)-Thione] has an IC50 [1, 8] of 11.5 to 38.2 µM, a melting point of 267 to 269 °C and an IC50 [2] of 47.8 ± 2.29 µM. It also gave an IC50 ([3]; Homo sapiens, HL-60, 72 h) of 11.5 ± 0.11 µM, an IC50 ([4]; Homo sapiens, MCF7, 72 h) of 38.2 ± 1.09 µM and an IC50 ([7]; Homo sapiens, HCT-116, 72 h) of 17.4 ± 1.12 µM.
Compound `NS(=O)(=O)c1ccc(-n2cc(-n3nnc4ccccc43)[nH]c2=S)cc1` [BI12, 4-(4-(1H-Benzo[d][1,2,3]Triazol-1-yl)-2-Thioxo-2,3-Dihydro-1H-Imidazol-1-yl)Benzenesulfonamide] has a melting point of 217 to 219 °C, an IC50 [2] of 25.1 ± 1.2 µM and an IC50 ([3]; Homo sapiens, HL-60, 72 h) of 0.9 ± 0.06 µM. For the same compound, the IC50 ([4]; Homo sapiens, MCF7, 72 h) was 6.1 ± 0.75 µM, the IC50 [5] was 0.784 ± 0.02 µM and the “Colchicine Binding % ± SD (inhibition of [3H]colchicine binding), 1 µM Drug” value [6] was 64.67 ± 2%. The “Colchicine Binding % ± SD (inhibition of [3H]colchicine binding), 5 µM Drug” value [6] was 80.26 ± 2% and the IC50 ([7]; Homo sapiens, HCT-116, 72 h) was 7.83 ± 0.5 µM.
Work on `Oc1ccc(-n2cc(-n3nnc4ccccc43)[nH]c2=S)cc1` [BI5, 4-(1H-Benzo[d][1,2,3]Triazol-1-yl)-1-(4-Hydroxyphenyl)-1H-Imidazole-2(3H)-Thione] yielded an IC50 [1, 8] of 1.51 to 15.5 µM, a melting point of 267 to 269 °C and an IC50 [2] of 4.74 ± 0.23 µM. It also gave an IC50 ([3]; 72 h) of 1.18 ± 0.08 µM, an IC50 ([3]; Homo sapiens, HL-60, 72 h) of 1.1 µM and an IC50 ([4]; 72 h) of 4.45 ± 0.13 µM. For the same compound, the IC50 ([4]; Homo sapiens, MCF7, 72 h) was 4.4 µM, the IC50 [5] was 0.49 µM and 0.497 µM and the “Colchicine Binding % ± SD (inhibition of [3H]colchicine binding), 1 µM Drug” value [6] was 61.78 ± 2%. The “Colchicine Binding % ± SD (inhibition of [3H]colchicine binding), 5 µM Drug” value [6] was 81.34 ± 2%, the IC50 ([7]; 72 h) was 2.15 ± 0.14 µM and the IC50 ([7]; Homo sapiens, HCT-116, 72 h) was 2.1 µM.
Work on `S=c1[nH]c(-n2nnc3ccccc32)cn1-c1cccc(Cl)c1` [BI8, 4-(1H-Benzo[d][1,2,3]Triazol-1-yl)-1-(3-Chlorophenyl)-1H-Imidazole-2(3H)-Thione] yielded an IC50 [1, 9] of 1.51 to 7.38 µM, an IC50 [1, 8] of 1.51 to 15.5 µM and a melting point of 120 to 122 °C. It also gave an IC50 [2] of 39.8 ± 1.91 µM, an IC50 ([3]; Homo sapiens, HL-60, 72 h) of 5.12 ± 0.35 µM and an IC50 ([4]; Homo sapiens, MCF7, 72 h) of 2.66 ± 0.08 µM. For the same compound, the IC50 [5] was 3.05 µM, the “Colchicine Binding % ± SD (inhibition of [3H]colchicine binding), 1 µM Drug” value [6] was 59.74± 2% and the “Colchicine Binding % ± SD (inhibition of [3H]colchicine binding), 5 µM Drug” value [6] was 82.13 ± 2%. For the same compound, the IC50 ([7]; Homo sapiens, HCT-116, 72 h) was 2.1 ± 0.14 µM.
With `S=c1[nH]c(-n2nnc3ccccc32)cn1-c1ccccc1` [BI1, 4-(1H-Benzo[d][1,2,3]Triazol-1-yl)-1-Phenyl-1H-Imidazole-2(3H)-Thione] the melting point was 175 to 177 °C, the IC50 [2] was 63 ± 3.02 µM and the IC50 ([3]; Homo sapiens, HL-60, 72 h) was 5.23 ± 0.36 µM. It also gave an IC50 ([4]; Homo sapiens, MCF7, 72 h) of 6.4 ± 0.18 µM and an IC50 ([7]; Homo sapiens, HCT-116, 72 h) of 17.5 ± 1.13 µM.
For `Fc1ccccc1N1CC(n2nnc3ccccc32)=NC1=S` [BI10, 4-(1H-Benzo[d][1,2,3]Triazol-1-yl)-1-(2-Florophenyl)-1H-Imidazole-2(3H)-Thione], the melting point was 196 to 198 °C.
In the case of `COc1ccc(-n2cc(-n3nnc4ccccc43)[nH]c2=S)cc1` [BI4, 4-(1H-Benzo[d][1,2,3]Triazol-1-yl)-1-(4-Methoxyphenyl)-1H-Imidazole-2(3H)-Thione], the “Fold more active than methyl-containing derivative BI2 (antiproliferative)” value [1] is reported as 2.5 fold, the melting point is reported as 175 to 177 °C and the IC50 [2] is reported as > 100 µM. It also gave an IC50 ([3]; Homo sapiens, HL-60, 72 h) of 22.1 ± 1.52 µM and an IC50 ([4]; Homo sapiens, MCF7, 72 h) of 2.29 ± 0.07 µM.
Compound `S=c1[nH]c(-n2nnc3ccccc32)cn1-c1ccc(Cl)cc1` [BI6, 4-(1H-Benzo[d][1,2,3]Triazol-1-yl)-1-(4-Chlorophenyl)-1H-Imidazole-2(3H)-Thione] has an IC50 [1, 9] of 1.51 to 7.38 µM, an IC50 [1, 8] of 1.51 to 7.29 µM and a melting point of 187 to 189 °C. It also gave an IC50 [2] of 27.4 ± 1.31 µM, an IC50 ([3]; Homo sapiens, HL-60, 72 h) of 3.28 ± 0.22 µM and an IC50 ([4]; Homo sapiens, MCF7, 72 h) of 7.29 ± 0.21 µM. For the same compound, the IC50 [5] was 0.928 ± 0.03 µM, the “Colchicine Binding % ± SD (inhibition of [3H]colchicine binding), 1 µM Drug” value [6] was 63.23 ± 2% and the “Colchicine Binding % ± SD (inhibition of [3H]colchicine binding), 5 µM Drug” value [6] was 77.63 ± 2%. The IC50 ([7]; Homo sapiens, HCT-116, 72 h) was 1.51 ± 0.12 µM.
